Measured values published in patent US5061689A, “Zinc bacitracin containing wound dressing” (Bioderm, Inc., priority 1986, dated 1991).

Tested on: partial thickness wounds
Experiment: Topically applied bacitracin zinc 3% to 9%, healing of partial thickness wounds (Example III)
Assay type: in vivo, white Yorkshire pigs
Description: To test the effect of bacitracin zinc on epidermal resurfacing, approximately 60 rectangular wounds measuring 7 mm wide, 10 mm long, and 0.5 mm deep were made in each of eighteen white Yorkshire pigs in the paravertebral and thoracic areas with a Castroviejo keratome. The electrokeratome was fitted with a razor blade modified so that the cutting edge was reduced to 7 mm. The wounds were separated from one another by at least 15 mm of normal skin. The bacitracin zinc was applied in impregnated foam shortly (within 5 minutes) after wounding on day 0 and once daily thereafter for 7 days. In order to rule out the possibility that wounds made in different anatomical regions heal at different rates the regions used for each treatment group varied for each animal. Two days after wounding and each day thereafter some of the wounds with surrounding normal skin were excised from each treatment group. The excisions were made with a Castroviejo keratome fitted with a 22 mm blade, set to cut at a depth of 0.7 mm. After incubating the specimens in 2N sodium bromide at 37° C. for three hours, the epidermis was separated from the dermis and the epidermal sheet (22 sq mm) was assessed for re-epithelialization as previously described. Briefly, this method is a macroscopic examination of the separated epidermis for defects. Defects are visualized as holes in the separated epidermal sheet or as a lack of epidermal continuum in the area that contain the wound. The wound is considered re-epithelialized if there are no defects in the epidermis and not re-epithelialized if there are one or more defects. To more accurately assess the effective range of bacitracin concentrations,bacitracin zinc containing ointments were prepared with concentrations ranging from 3% to 9%. The methodology employed was substantially the same as in Example I.

## bacitracin zinc
3.0% bacitracin zinc, day 2 after wounding
  % of wounds healed: 0%
3.0% bacitracin zinc, day 3 after wounding
  % of wounds healed: 0%
3.0% bacitracin zinc, day 4 after wounding
  % of wounds healed: 33%
3.0% bacitracin zinc, day 5 after wounding
  % of wounds healed: 55%
3.0% bacitracin zinc, day 6 after wounding
  % of wounds healed: 90%
3.0% bacitracin zinc, day 7 after wounding
  % of wounds healed: 100%
4.0% bacitracin zinc, day 2 after wounding
  % of wounds healed: 0%
4.0% bacitracin zinc, day 3 after wounding
  % of wounds healed: 5%
4.0% bacitracin zinc, day 4 after wounding
  % of wounds healed: 45%
4.0% bacitracin zinc, day 5 after wounding
  % of wounds healed: 60%
4.0% bacitracin zinc, day 6 after wounding
  % of wounds healed: 96%
4.0% bacitracin zinc, day 7 after wounding
  % of wounds healed: 100%
5.0% bacitracin zinc, day 2 after wounding
  % of wounds healed: 0%
5.0% bacitracin zinc, day 3 after wounding
  % of wounds healed: 9%
5.0% bacitracin zinc, day 4 after wounding
  % of wounds healed: 48%
5.0% bacitracin zinc, day 5 after wounding
  % of wounds healed: 71%
5.0% bacitracin zinc, day 6 after wounding
  % of wounds healed: 95%
5.0% bacitracin zinc, day 7 after wounding
  % of wounds healed: 100%
5.5% bacitracin zinc, day 2 after wounding
  % of wounds healed: 0%
5.5% bacitracin zinc, day 3 after wounding
  % of wounds healed: 15%
5.5% bacitracin zinc, day 4 after wounding
  % of wounds healed: 55%
5.5% bacitracin zinc, day 5 after wounding
  % of wounds healed: 75%
5.5% bacitracin zinc, day 6 after wounding
  % of wounds healed: 98%
5.5% bacitracin zinc, day 7 after wounding
  % of wounds healed: 100%
6.0% bacitracin zinc, day 2 after wounding
  % of wounds healed: 0%
6.0% bacitracin zinc, day 3 after wounding
  % of wounds healed: 20%
6.0% bacitracin zinc, day 4 after wounding
  % of wounds healed: 59%
6.0% bacitracin zinc, day 5 after wounding
  % of wounds healed: 78%
6.0% bacitracin zinc, day 6 after wounding
  % of wounds healed: 98%
6.0% bacitracin zinc, day 7 after wounding
  % of wounds healed: 100%
6.5% bacitracin zinc, day 2 after wounding
  % of wounds healed: 0%
6.5% bacitracin zinc, day 3 after wounding
  % of wounds healed: 33%
6.5% bacitracin zinc, day 4 after wounding
  % of wounds healed: 65%
6.5% bacitracin zinc, day 5 after wounding
  % of wounds healed: 88%
6.5% bacitracin zinc, day 6 after wounding
  % of wounds healed: 100%
6.5% bacitracin zinc, day 7 after wounding
  % of wounds healed: 100%
7.0% bacitracin zinc, day 2 after wounding
  % of wounds healed: 0%
7.0% bacitracin zinc, day 3 after wounding
  % of wounds healed: 40%
7.0% bacitracin zinc, day 4 after wounding
  % of wounds healed: 70%
7.0% bacitracin zinc, day 5 after wounding
  % of wounds healed: 96%
7.0% bacitracin zinc, day 6 after wounding
  % of wounds healed: 100%
7.0% bacitracin zinc, day 7 after wounding
  % of wounds healed: 100%
7.5% bacitracin zinc, day 2 after wounding
  % of wounds healed: 0%
7.5% bacitracin zinc, day 3 after wounding
  % of wounds healed: 38%
7.5% bacitracin zinc, day 4 after wounding
  % of wounds healed: 68%
7.5% bacitracin zinc, day 5 after wounding
  % of wounds healed: 92%
7.5% bacitracin zinc, day 6 after wounding
  % of wounds healed: 98%
7.5% bacitracin zinc, day 7 after wounding
  % of wounds healed: 100%
8.0% bacitracin zinc, day 2 after wounding
  % of wounds healed: 0%
8.0% bacitracin zinc, day 3 after wounding
  % of wounds healed: 12%
8.0% bacitracin zinc, day 4 after wounding
  % of wounds healed: 59%
8.0% bacitracin zinc, day 5 after wounding
  % of wounds healed: 75%
8.0% bacitracin zinc, day 6 after wounding
  % of wounds healed: 90%
8.0% bacitracin zinc, day 7 after wounding
  % of wounds healed: 100%
9.0% bacitracin zinc, day 2 after wounding
  % of wounds healed: 0%
9.0% bacitracin zinc, day 3 after wounding
  % of wounds healed: 4%
9.0% bacitracin zinc, day 4 after wounding
  % of wounds healed: 33%
9.0% bacitracin zinc, day 5 after wounding
  % of wounds healed: 66%
9.0% bacitracin zinc, day 6 after wounding
  % of wounds healed: 90%
9.0% bacitracin zinc, day 7 after wounding
  % of wounds healed: 100%
Applied in an ointment base at concentrations of about 5% to 8%
  promoting epidermal resurfacing: effective agent for promoting epidermal resurfacing
Concentration of 4%
  enhancement of healing: some enhancement of healing is observed
Higher concentrations, particularly in the range of 6.5%-7.5%
  enhancement of healing: Preferred healing is observed
